Reference: US9187507B2 (Institute of Pharmacology and Toxicology Academy of …, priority 2009, dated 2015)
Where two headings read alike, the source gives them in different places.

Experiments:
[1] = human body, after MCC-478; cited from earlier work
[2] = Cytotoxicity by MTT method; type: cell-based; details: human; Hep G2 cells; MTT on the 3rd day of adding drugs; absorption at 540 nm
Experimental: The cytotoxicity of the desired compounds were measured by MTT method: Hep G2 cells were cultured in a DMEM culture medium containing 10% bovine calf serum, incubated in a 5% CO2 incubator, then the cells were inoculated in 96-well plate, cell count 5×10^4, continuously cultured for 3 days, added with new culture media with different drug concentrations, in which 3 parallel wells were set; on the 3rd day of adding drugs, MTT was added to 7.5 mg/ml, the culture was kept for further 2 h, the supernatant was discarded, isopropanol containing 10% […] was added, 120 μl/well, then added 0.4 μl/well again, enzyme-linked meter was used to measure the absorption at 540 nm, calculate 50% inhibition concentration, i.e., CC50 value.

[3] = system: HBV DNA; assay: Test of in vitro activity against HBV: inhibition of HBV DNA in Hep G 2.2.15 cells by quantitative real-time fluorescent PCR; type: cell-based; details: Hepatitis B virus, HepG2.2.15
Experimental: By an in vitro test method of using Hep G 2.2.15 cells, the inhibition effects and cytotoxicity of the desired compounds to HBV DNA were measured.
By using quantitative and real-time fluorescent PCR method, the inhibition effects of the desired compounds to HBV DNA were measured: Hep G 2.2.15 cells were cultured in a DMEM culture medium containing 10% bovine calf serum, incubated in a 5% CO2 incubator, then the cells were inoculated in 96-well plate, cell count 3×10^4, continuously cultured, when the cell density reached about 80%, the used culture medium was discarded, and new culture media with different drug concentrations were added, in which 3 parallel wells were set; the culture media were exchanged every three days. On the 10th day of using drug, 100 μl of supernatant was taken and measured to determine HBV DNA content by quantitative PCR method, calculate 50% inhibition concentration, i.e., IC50 value.

[4] = system: HBV strains with resistance to lamivudine; details: cited from earlier work
[5] = system: HBV; details: anti-HBV, cited from earlier work
[6] = system: other retro viruses such as HIV and HSV; details: cited from earlier work
[7] = system: hepatitis B virus; details: clinical; cited from earlier work

Compound	CC50 at 3 days [2] [µM]	IC50 [3] [µM]	further results
COc1ccc(Sc2nc(N)nc3c2ncn3CCOCP(=O)(O)O)cc1 [Compound 602076, 2-amino-6-(4-methoxyphenylthio)-9-(2-phosphonomethoxyethyl)-purine]			concentration of the free acid 602076 in blood relative to that of the monoester 602074 [1]: 1/10
COc1ccc(Sc2nc(N)nc3c2ncn3CCOCP(=O)(OCOC(=O)C(C)C)OCOC(=O)C(C)C)cc1 [Compound I2]	> 1000	0.02	
COc1ccc(Sc2nc(N)nc3c2ncn3CCOCP(=O)(OCOC(=O)C(C)(C)C)OCOC(=O)C(C)(C)C)cc1 [Compound I3]	> 1000	0.015	
COc1ccc(Sc2nc(N)nc3c2ncn3CCOCP(=O)(OCOC(=O)C2CCCCC2)OCOC(=O)C2CCCCC2)cc1 [Compound I4]	> 1000	0.012	
COc1ccc(Sc2nc(N)nc3c2ncn3C[C@@H](C)OCP(=O)(OCOC(=O)C(C)(C)C)OCOC(=O)C(C)(C)C)cc1 [Compound I5]	> 1000	0.006	
COc1ccc(Sc2nc(N)nc3c2ncn3CCOCP(=O)(OCOC(=O)OC(C)C)OCOC(=O)OC(C)C)cc1 [Compound I8]	> 1000	0.005	
COc1ccc(Sc2nc(N)nc3c2ncn3CCOCP(=O)(OCOC(=O)OCC(C)C)OCOC(=O)OCC(C)C)cc1 [Compound I9]	> 1000	0.021	
COc1ccc(Sc2nc(N)nc3c2ncn3CCOCP(=O)(OCOC(=O)OC2CCCCC2)OCOC(=O)OC2CCCCC2)cc1 [Compound I12]	> 1000	0.011	
COc1ccc(Sc2nc(N)nc3c2ncn3C[C@@H](C)OCP(=O)(OCOC(=O)OC(C)C)OCOC(=O)OC(C)C)cc1 [Compound I13]	> 1000	0.054	
COc1ccc(Sc2nc(N)nc3c2ncn3CCOCP(=O)(OCC(F)(F)F)OCC(F)(F)F)cc1 [MCC-478]	> 1000		IC50 ([3]; Hep G 2.2.15 cells, HBV DNA content in supernatant by quantitative PCR on the 10th day of using drug, read-out: IC50): 0.016 µM; inhibition effects on HBV strains with resistance to lamivudine [4]: has inhibition effects; in vitro activity, times that of adefovir ([5]; relative to adefovir): 10-20 times; in vitro activity, times that of lamivudine ([5]; relative to lamivudine): 20-80 times; activity against other retro viruses such as HIV and HSV [6]: no activity
interferon			effective rate of treatment [7]: 30-50%
